Data set [1] can be described thus: Acute toxicity test (oral, LD50). Particulars: mouse, in vivo. Here is the method: The test compounds were orally administered to groups of 5 ICR-strain male mice. LD50 value of the compound of the present invention was calculated by the LitchfieldWilcoxon's method based on mortality for 14 days after drug administration.
Data set [2] has as its system PCA (Passive Cutaneous Anaphylaxis) reaction. The experiment in a line: Anti-allergic effect: PCA (Passive Cutaneous Anaphylaxis) reaction in rats. In kind it is in vivo, Wister-strain male rats. The conditions noted are these: Rattus norvegicus, oral, 1 hour before antigen challenge, dye leakage at 620 nm. Here is the method:
PCA (Passive Cutaneous Anaphylaxis) reaction in rats was taken as an index to an anti-allergic effect of the compound of the present invention.
In order to perform sensitization, anti-DNP-Asc (dinitrophenylated Ascaris extracts) serum diluted with saline was injected intradermally at 4 sites on the shaved back of groups of 6 Wister-strain male rats (6 weeks of age). 1 hour after oral administration of the test drug, the mixture of equivalent amount of DNP-Asc (5 mg/ml) and 2% Evans blue were intravenously injected to generate PCA reaction. 30 minutes thereafter, rats were killed by decapitation and exsanguinated. The skin was opened in order to evaluate the leakage of blue dye. The obtained skin was dissolved in 2N potassium hydroxide, then 2N phosphoric acid and acetone were added thereto. The amount of dye was determined by measurement of absorbance at 620 nm after centrifugation.

Molecules are shown by their SMILES. A value given as a limit tells only on which side of the number the result lay.

Molecule `Cn1c(=O)c2c(NO)ccnc2n(C)c1=O` [Compound 11, 5-hydroxyamino-1,3-dimethylpyrido[2,3-d]pyrimidine-2,4-dione] registered an LD50 at 336 h in data set [1] greater than 1000 mg/kg. Moreover, the inhibition in vivo at 20 mg/kg in data set [2] came to 74%.
The molecule `Cn1c(=O)c2cccnc2n(C)c1=O` [Compound 2, 1,3-dimethylpyrido[2,3-d]pyrimidine-2,4-dione] came in with an inhibition in vivo at 20 mg/kg in data set [2] of 51.2%.
`CC(C)Nc1ccnc2c1c(=O)n(C)c(=O)n2C` [Compound 10, 5-isopropylamino-1,3-dimethylpyrido[2,3-d]pyrimidine-2,4-dione] yielded an LD50 at 336 h in data set [1] of 850 mg/kg. The same molecule came in with an inhibition in vivo at 20 mg/kg in data set [2] of 86.6%.
In data set [2], `Cn1c(=O)c2[nH]cnc2n(C)c1=O` [Theophylline, reference compound] yielded an inhibition in vivo at 20 mg/kg of 57.9%.
In data set [1], `C=CCNc1ccnc2c1c(=O)n(C)c(=O)n2C` [Compound 9, 5-allylamino-1,3-dimethylpyrido[2,3-d]pyrimidine-2,4-dione] yielded an LD50 at 336 h greater than 1000 mg/kg. The inhibition in vivo at 20 mg/kg in data set [2] came to 67.9%.
As for `Cn1c(=O)c2ccc(N)nc2n(C)c1=O` [Compound 15, 7-amino-1,3-dimethylpyrido[2,3-d]pyrimidine-2,4-dione], the LD50 at 336 h in data set [1] is greater than 1200 mg/kg. For the same molecule, 20 mg/kg produced 68.7% inhibition in vivo in data set [2].
Take `Cn1c(=O)c2cc(N)cnc2n(C)c1=O` [Compound 17, 6-amino-1,3-dimethylpyrido[2,3-d]pyrimidine-2,4-dione]: in data set [2], 20 mg/kg produced 56.2% inhibition in vivo.
Consider `CNc1ccnc2c1c(=O)n(C)c(=O)n2C` [Compound 7, 5-methylamino-1,3-dimethylpyrido[2,3-d]pyrimidine-2,4-dione], for which the LD50 at 336 h in data set [1] is 1050 mg/kg. In addition, testing at 20 mg/kg in data set [2] gave an inhibition in vivo of 73.7%.
As for `Cn1c(=O)c2c(N)ccnc2n(C)c1=O` [Compound 4, 5-amino-1,3-dimethylpyrido[2,3-d]pyrimidine-2,4-dione], in data set [1], the LD50 at 336 h stood at 850 mg/kg. In data set [2], this molecule came in with an inhibition in vivo at 20 mg/kg of 68.7%.
The molecule `CCn1c(=O)c2c(N)ccnc2n(CC)c1=O` [Compound 5, 5-amino-1,3-diethylpyrido[2,3-d]pyrimidine-2,4-dione] had an LD50 at 336 h in data set [1] greater than 1000 mg/kg. For the same molecule, 20 mg/kg produced 79.2% inhibition in vivo in data set [2].
Take `Cn1c(=O)c2c(O)ccnc2n(C)c1=O` [Compound 14, 5-hydroxy1,3-dimethylpyrido[2,3-d]pyrimidine-2,4-dione]: at 20 mg/kg the inhibition in vivo in data set [2] was 49.9%.
The same measure, in the same setting: for `CCn1c(=O)c2c(NC)ccnc2n(CC)c1=O` [Compound 8, 5-methylamino-1,3-diethylpyrido[2,3-d]pyrimidine-2,4-dione] the value was 76.4%.

A word on the LD50: it is the dose expected to kill half of the subjects tested. Low readings indicate greater toxicity, high ones lower toxicity. The inhibition in vivo is the share of the control response that was lost under treatment. A higher inhibition in vivo goes with a strong effect.

For the origin of these results see patent US4808587A, “5-substituted pyrido[2,3-d]pyrimidine-2,4-diones” (Nippon Zoki Pharmaceutical Co., Ltd., priority 1986, dated 1989).
